Series [1] relates to human embryonic lung (HEL) cells. As to conditions: Table 5.
For series [2], the system named is MCF-7 cells. Put plainly: Annexin V assay for apoptosis/necrosis detection. The format is cell-based, human. As to conditions: MCF-7, after 48 h, versus control.
Series [3] concerns hydroxy-HIF-1α (Pro564). Nature of the series: Western blot, hydroxy-HIF-1α in MCF-7 cells. The format is cell-based, human. As to conditions: 0.08 μM, 24 and 48 h.
Series [4] relates to NOS2. Put plainly: Western blot, NOS2 in MCF-7 cells. The format is cell-based, human. The settings on record: 0.08 μM, 24 and 48 h. Background: A western blot detects proteins with antibodies after separation by electrophoresis.

The text below walks through data of publication PMC7115614 (European Journal of Medicinal Chemistry, 2019).

Regarding `CCCCc1cn(C[C@H](O)[C@H]2OC(=O)C(OCc3ccccc3)=C2OCc2ccccc2)nn1` [Compound 8l, 2,3-O,O-dibenzyl-6-(4-butyl-1,2,3-triazol-1-yl)-6-deoxy-L-ascorbic acid], the “Cytotoxicity Cell morphology (MCC)” value in series [1] is 20 μM.

With `O=c1[nH]c(=O)n([C@H]2C[C@H](O)[C@@H](CO)O2)cc1/C=C/Br` [Brivudin, reference compound], in series [1], the “Cytotoxicity Cell morphology (MCC)” value was greater than 300 μM.

As to `Cc1ccc(-c2cn(C/C=C3\OC(=O)C(OCc4ccccc4)=C3OCc3ccccc3)nn2)cc1` [Compound 10f], in series [1], the “Cytotoxicity Cell morphology (MCC)” value turned out to be 20 μM.

Turning to `Nc1ccn(C[C@@H](CO)OCP(=O)(O)O)c(=O)n1.O.O` [Cidofovir, reference compound], the “Cytotoxicity Cell morphology (MCC)” value in series [1] was greater than 300 μM.

`O=C1O/C(=C\Cn2cc(CCO)nn2)C(OCc2ccccc2)=C1OCc1ccccc1` [Compound 10p]: the “Cytotoxicity Cell morphology (MCC)” value in series [1] is given as greater than 100 μM.

Take `CC(C)(C)c1cn(C/C=C2\OC(=O)C(OCc3ccccc3)=C2OCc2ccccc2)nn1` [Compound 10n]: the “Cytotoxicity Cell morphology (MCC)” value in series [1] was found to be 100 μM.

On to `C[Si](C)(C)c1cn(C[C@H](O)[C@H]2OC(=O)C(OCc3ccccc3)=C2OCc2ccccc2)nn1` [Compound 8b, 2,3-O,O-dibenzyl-6-deoxy-6-(4-trimethylsilyl-1,2,3-triazol-1-yl)-L-ascorbic acid], for which the “Cytotoxicity Cell morphology (MCC)” value in series [1] is listed as 100 μM.

With `O=C1O/C(=C\Cn2cc(-c3cc(F)cc(F)c3)nn2)C(OCc2ccccc2)=C1OCc1ccccc1` [Compound 10d], the “Cytotoxicity Cell morphology (MCC)” value in series [1] was determined as 100 μM.

On to `O=C1O[C@H]([C@@H](O)Cn2cc(C3CC3)nn2)C(OCc2ccccc2)=C1OCc1ccccc1` [Compound 8k, 2,3-O,O-dibenzyl-6-[4-cyclopropyl-1,2,3-triazol-1-yl]-6-deoxy-L-ascorbic acid], for which the “Cytotoxicity Cell morphology (MCC)” value in series [1] came to 100 μM.

For `CC(C)(C)c1cn(C[C@H](O)[C@H]2OC(=O)C(OCc3ccccc3)=C2OCc2ccccc2)nn1` [Compound 8n, 2,3-O,O-dibenzyl-6-(4-tert-butyl-1,2,3-triazol-1-yl)-6-deoxy-L-ascorbic acid], in series [1], the “Cytotoxicity Cell morphology (MCC)” value was found to be 100 μM.

With `O=C1O/C(=C\Cn2cc(-c3ccc(Br)cc3)nn2)C(OCc2ccccc2)=C1OCc1ccccc1` [Compound 10e], the “Cytotoxicity Cell morphology (MCC)” value in series [1] is greater than 100 μM.

For `CCCCCCCCCCc1cn(C[C@H](O)[C@H]2OC(=O)C(OCc3ccccc3)=C2OCc2ccccc2)nn1` [Compound 8m, 2,3-O,O-dibenzyl-6-(4-decyl-1,2,3-triazol-1-yl)-6-deoxy-L-ascorbic acid], in series [2], the “increase in late apoptotic cell population” value is 24.7% and the “increase of necrotic cell populations” value is on record as 7.92%. In series [3], the “hydroxylated HIF-1α levels” value is “significant increase”. For the same molecule, the “levels of NOS2” value in series [4] is listed as “decreased levels”. The “Cytotoxicity Cell morphology (MCC)” value in series [1] worked out at 20 μM.

As for `COc1ccc(-c2cn(C/C=C3\OC(=O)C(OCc4ccccc4)=C3OCc3ccccc3)nn2)cc1` [Compound 10g], the “Cytotoxicity Cell morphology (MCC)” value in series [1] is greater than 100 μM.

Take `COc1ccccc1-c1cn(C/C=C2\OC(=O)C(OCc3ccccc3)=C2OCc2ccccc2)nn1` [Compound 10h]: the “Cytotoxicity Cell morphology (MCC)” value in series [1] came to 100 μM.
